Source: paper PMC8234803, “In Vitro Metabolism of Six C-Glycosidic Flavonoids from Passiflora incarnata L” (International Journal of Molecular Sciences, 2021)
“Also recorded” adds a separate entry of the source.

Key:
[1] = Stability testing in test buffer (HBSS pH 6.0) under assay conditions, HPLC-DAD; type: physicochemical; conditions: 10 µM in HBSS pH 6.0, 37 °C, 5% CO2
Procedure: To guarantee the stability of all test substances during the metabolism assay on Caco-2 cells, they were incubated in the test buffer under assay conditions. Test samples were collected each hour for 5 h and were measured via HPLC-DAD.
To ensure stability during the Caco-2 metabolism experiments, all test substances were dissolved in DMSO to a concentration of 20 mM and diluted to 10 µM in an appropriate volume of HBSS (pH 6.0), resulting in a DMSO concentration of less than 1%. The test solution (1 mL) was aliquoted into a 12-well Transwell® plate and incubated for 5 h in an atmosphere of 5% CO2 and 90% relative humidity at 37 °C. Test samples (100 µL) were collected after t = 0, 1, 2, 3, 4, and 5 h and measured via HPLC-DAD. The peak area of the test substance at time t = 0 h was defined as 100%, and all other peak areas were related to calculate the proportional stability. The stability was calculated as % = area/area0 × 100. Stability testing was performed on three independent days with freshly prepared solutions (n = 3).
The system consisted of the following: Elite LaChrom with an L2200 autosampler, L2130 pump, L2350 column oven, L2444 DAD, and EZChrom Elite 3.1.7 software (Hitachi, Tokyo, Japan); column: Kinetex® Biphenyl, 100 Å, 250-4.6 mm (5 µm, same material precolumn; Phenomenex, Torrance, CA, USA); injection volume 30 µL; oven temp.: 25 °C; autosampler temp.: 10 °C; detection wavelength: 340 nm; flow: 1.2 mL/min; A = H2O + 0.1% TFA, B = acetonitrile + 0.1% TFA; gradient: 0–2 min 10% B, 2–10 min 10% B → 100% B, 10–11 min 100% B → 10% B, 11–15 min 10% B.

Caco-2 cell monolayer = assay: Caco-2 monolayer metabolism experiment, metabolites identified via UHPLC-DAD-MS(/MS); type: in vitro ADME, human; conditions: for Metabolites of the aglycones (cleavage of the C–C glycosidic bond): 100 µM approach; for Possible metabolite (phase II metabolite identified by MS/MS fragmentation and comparison with reference compound after enzymatic hydrolysis): glucuronidase/sulfatase cleavage, UHPLC-DAD-MS/MS; for Extent of phase I and II metabolism (in words): independent of incubation time and concentration
Procedure: To obtain information on the in vitro metabolism of the six tested C-glycosidic flavonoids in the intestine, experiments were carried out using the Caco-2 monolayer model (Figure 2). Metabolite profiles were characterized at two different concentrations (10 and 100 µM; n = 3) and after two different incubation times (3 or 5 h; n = 3) in order to determine the influence of concentration and time on the metabolism reactions that occurred. Furthermore, to analyze the distribution of the observed metabolites, samples were collected from the cell lysate and the apical and basolateral compartments. All samples of the metabolism experiments using the Caco-2 cell monolayer were analyzed using UHPLC-DAD-MS and UHPLC-DAD-MS/MS. Metabolites were identified by libraries that were prepared for each compound (Tables S1–S6). The O and IO libraries contained 67 metabolites (Tables S1 and S2), the S and IS libraries contained 106 metabolites (Tables S3 and S4), and the V and IV libraries contained 71 possible metabolites (Tables S5 and S6).
To form a confluent and differentiated monolayer, cells at passages 16–45 were seeded into the inserts of 12-well Transwell® plates at a density of 3.0 × 10^5 cells/cm^2. Afterwards, the culture medium was replaced every day, and the metabolism experiment was performed 21 days after seeding. The apical and basolateral compartments contained 0.5 and 1.5 mL of cell culture medium, respectively.
On day 21, the cell culture medium was removed from the apical and basolateral compartments, and the Caco-2 cell monolayer was washed two times with prewarmed HBSS. The Transwell® plates containing HBSS were incubated at 37 °C for 15 min to measure the transepithelial electrical resistance (TEER) value. The integrity of the cell monolayers was evaluated by TEER values between the apical and basolateral sides with the Evohm2 system (World Precision Instruments, Sarasota, FL, USA). The cell inserts were only used for the metabolism experiments if the resistance exceeded 350 Ω/cm^2. The six test substances were dissolved in DMSO to a stock solution of 20 mM. The HBSS was adjusted to pH 6.0 and 7.4 with 1 M HCl. Afterwards, the stock solutions were diluted to 10 or 100 µM in an appropriate volume of HBSS (pH 6.0) to obtain a DMSO concentration of <1%. The test solutions were added to the apical side (0.5 mL), while the basolateral side was filled with 1.5 mL of HBSS (pH 7.4). The Transwell® plates were incubated at 37 °C for 3 or 5 h, respectively. After this period, solutions from the apical and basolateral compartments were collected in separate tubes, washed twice with 500 µL of HBSS, and then collected again. The samples were lyophilized and stored at −20 °C until they were measured using UHPLC-DAD-MS. After the experiment, Transwell® inserts were apically (0.5 mL) and basolaterally (1.5 mL) filled with HBSS and warmed to 37 °C for 20 min. Then, the TEER values were measured to guarantee the integrity of the monolayer during the experiment. The experiment was performed in triplicate for each substance, concentration, and incubation time.
After the metabolism experiment, cell monolayers were washed twice with PBS and incubated with 200 µL of trypsin-EDTA for 10 min at 37 °C in an atmosphere of 5% CO2 and constant humidity in the incubator. The cells were removed from the well by pipetting up and down, and were collected in a tube. The well was washed twice with PBS (1 mL), and the wash solution was also collected in the corresponding tube. The mixture was centrifuged (1000× g rpm, 5 min), and the supernatant was discarded.

[2] = MTT assay under metabolic conditions (cell viability); type: cell-based, human; conditions: human, 5 h incubation, read-out: Viability of Caco-2 cells; for viability at 5 h, 10 µM: Caco-2, 10 µM in HBSS (pH 6.0); for viability at 5 h, 100 µM: Caco-2, 100 µM in HBSS (pH 6.0)
Procedure: (§1) All six substances were tested in five different dilutions in HBSS (pH 6.0). The determined viability values of O, IO, S, IS, V, and IV are listed in the Supplementary Materials (Figure S2).
(§2) Caco-2 cells in the logarithmic growth phase were seeded in 96-well plates at a density of 3 × 10^4 cells/well and incubated at 37 °C in an atmosphere of 5% CO2 and constant moisture in an incubator. After 24 h, the cell culture medium was removed, and 100 µL of HBSS solution (negative control), 0.5% DMSO in HBSS solution (solvent control), or flavonoid samples in HBSS solution (6 flavonoids at concentrations of 10, 25, 50, 75, and 100 µM) was applied in quintuplicate and incubated for 5 h. Afterwards, the HBSS solutions were removed and replaced with an MTT solution in DMEM (0.4 mg/mL) and incubated for another 3 h at 37 °C. Then, the MTT solution was discarded, and the cells were fixed with a 10% SDS solution in PBS and stored at room temperature in the dark. After 24 h, the absorbance was measured on a Tecan microplate reader (Tecan Trading AG, Switzerland) at 560 nm. The viability rate was calculated as % = A/A0 × 100, with A as the average absorbance value of the treatment and solvent control groups and A0 as the average absorbance value of the negative control group. The assay was performed three times in pentaplicate.
(§3) The human colon adenocarcinoma cell line Caco-2 was obtained from the ATCC (American Type Culture Collection, Manassas, VA, USA). The cell line was determined to be free of mycoplasma contamination by PCR and culture from GATC Biotech AG (Konstanz, Germany). The cells were cultured in DMEM supplemented with 10% (v/v) FBS, 1% (v/v) NEAA, and 1% (v/v) antibiotics (penicillin/streptomycin) in an atmosphere of 5% CO2 and 90% relative humidity at 37 °C. The culture medium was replaced every 3 days, and the cells were split 1:5 using trypsin-EDTA once 90% confluence was obtained.

Caco-2 cells = assay: as above; type: cell-based, human; conditions: 10, 25, 50, 75, 100 µM in HBSS (pH 6.0), 5 h incubation
Procedure: as §1, §2, §3

[3] = initial concentration 10 µM, 3 h, apical compartment
[4] = initial concentration 10 µM, 5 h, apical compartment
[5] = initial concentration 100 µM, 3 h, apical compartment
[6] = initial concentration 100 µM, 3 h, basolateral compartment
[7] = initial concentration 100 µM, 5 h, apical compartment

Structure (SMILES)	Stability (content relative to t = 0 h) ([1]; after 3 h of incubation)	Extent of metabolism (in words) (Caco-2 cell monolayer; 10 µM, 3 and 5 h)	Metabolites of the aglycones (cleavage of the C–C glycosidic bond) (Caco-2 cell monolayer)	Extent of metabolism (in words) (Caco-2 cell monolayer; 100 µM, 3 and 5 h)	Extent of phase I and II metabolism (in words) (Caco-2 cell monolayer)	Possible metabolite detected (Caco-2 cell monolayer; [3])	Possible metabolite detected (Caco-2 cell monolayer; [4])	Possible metabolite detected (Caco-2 cell monolayer; [5])	Possible metabolite detected (Caco-2 cell monolayer; [6])	Possible metabolite detected (Caco-2 cell monolayer; [7])	viability at 5 h, 10 µM [2] [%]	viability at 5 h, 100 µM [2] [%]	Effect on the viability of Caco-2 cells (in words) (Caco-2 cells)	also measured
O=c1cc(-c2ccc(O)cc2)oc2cc(O)c([C@@H]3O[C@H](CO)[C@@H](O)[C@H](O)[C@H]3O)c(O)c12 [IV, isovitexin]	96%	broader ranges of phase I and II metabolites	metabolites of the corresponding aglycones apigenin and luteolin were also detected	extensive metabolism	highly metabolized in phase I and II reactions	Hydroxy-methoxy-isovitexin; also recorded: Hydroxy-apigenin-sulfate; also recorded: Hydroxy-methoxy-apigenin	Hydroxy-methoxy-isovitexin; also recorded: Hydroxy-dimethoxy-isovitexin; also recorded: Hydroxy-apigenin-sulfate	Hydroxy-apigenin-sulfate; also recorded: Hydroxy-dimethoxy-isovitexin; also recorded: Hydroxy-methoxy-apigenin; also recorded: Hydroxy-methoxy-isovitexin	Hydroxy-dimethoxy-isovitexin	Hydroxy-methoxy-isovitexin; also recorded: Hydroxy-apigenin-sulfate; also recorded: Hydroxy-dimethoxy-isovitexin; also recorded: Hydroxy-methoxy-apigenin	92	82	slight, concentration-dependent reductions	Stability (content relative to t = 0 h) ([1]; after 5 h incubation): 95%; Possible metabolite (phase II metabolite identified by MS/MS fragmentation and comparison with reference compound after enzymatic hydrolysis) (Caco-2 cell monolayer): Methoxy-luteolin-sulfate
O=c1cc(-c2ccc(O)c(O)c2)oc2c([C@@H]3O[C@H](CO)[C@@H](O)[C@H](O)[C@H]3O)c(O)cc(O)c12 [O, orientin]	approximately 100%	broader ranges of phase I and II metabolites	metabolites of the corresponding aglycones apigenin and luteolin were also detected	extensive metabolism	highly metabolized in phase I and II reactions	Orientin-sulfate; also recorded: Hydroxy-methoxy-orientin	Orientin-sulfate; also recorded: Methoxy-orientin	Orientin-sulfate; also recorded: Hydroxy-luteolin-glucuronide; also recorded: Methoxy-luteolin; also recorded: Hydroxy-methoxy-orientin	Orientin-sulfate	Orientin-sulfate; also recorded: Hydroxy-luteolin-glucuronide; also recorded: Hydroxy-methoxy-orientin	–	–	no significant effects at any concentration	Possible metabolite (phase II metabolite identified by MS/MS fragmentation and comparison with reference compound after enzymatic hydrolysis) (Caco-2 cell monolayer; metabolite at RT 3.146 min, m/z 527.0499): O-sulfate; Possible metabolite (phase II metabolite identified by MS/MS fragmentation and comparison with reference compound after enzymatic hydrolysis) (Caco-2 cell monolayer; metabolite at RT 5.134 min, m/z 477.0674): Quercetin-glucuronide; Possible metabolite (phase II metabolite identified by MS/MS fragmentation and comparison with reference compound after enzymatic hydrolysis) (Caco-2 cell monolayer; metabolite at RT 5.476 min, m/z 461.0724): Luteolin-glucuronide; Possible metabolite detected (Caco-2 cell monolayer; initial concentration 10 µM, 3 h, basolateral compartment): Orientin-sulfate; also recorded: Hydroxy-methoxy-orientin; Possible metabolite detected (Caco-2 cell monolayer; initial concentration 100 µM, 5 h, cell lysate): Methoxy-orientin
O=c1cc(-c2ccc(O)cc2)oc2c([C@@H]3O[C@H](CO)[C@@H](O)[C@H](O)[C@H]3O)c(O)cc(O)c12 [V, vitexin]	approximately 100%	very limited metabolism	–	a few hydroxylated and methoxylated derivatives	poorly metabolized in phase I and II reactions	–	–	Hydroxy-methoxy-vitexin	Hydroxy-methoxy-vitexin	Hydroxy-vitexin	92	83	slight, concentration-dependent reductions	Phase II conjugates containing glucuronic acid or sulfates (Caco-2 cell monolayer; 10 µM, 3 and 5 h): No phase II conjugates containing glucuronic acid or sulfates were detectable; Phase II metabolites with glucuronic acid or sulfates (Caco-2 cell monolayer; 100 µM, 3 and 5 h): lacked the presence of phase II metabolites with glucuronic acid or sulfates
